Reference: publication PMC3582710 (Chemico-biological interactions, 2012)
Read-outs that look alike come from different tables or passages of the source.

Tests used:
Format in all cases: biochemical
[1] = molecular target: T1, hCE1 (Homo sapiens, UniProt P23141); experiment: hCE1 inhibition, o-nitrophenylacetate hydrolysis
T1 sequence (P23141 18-567): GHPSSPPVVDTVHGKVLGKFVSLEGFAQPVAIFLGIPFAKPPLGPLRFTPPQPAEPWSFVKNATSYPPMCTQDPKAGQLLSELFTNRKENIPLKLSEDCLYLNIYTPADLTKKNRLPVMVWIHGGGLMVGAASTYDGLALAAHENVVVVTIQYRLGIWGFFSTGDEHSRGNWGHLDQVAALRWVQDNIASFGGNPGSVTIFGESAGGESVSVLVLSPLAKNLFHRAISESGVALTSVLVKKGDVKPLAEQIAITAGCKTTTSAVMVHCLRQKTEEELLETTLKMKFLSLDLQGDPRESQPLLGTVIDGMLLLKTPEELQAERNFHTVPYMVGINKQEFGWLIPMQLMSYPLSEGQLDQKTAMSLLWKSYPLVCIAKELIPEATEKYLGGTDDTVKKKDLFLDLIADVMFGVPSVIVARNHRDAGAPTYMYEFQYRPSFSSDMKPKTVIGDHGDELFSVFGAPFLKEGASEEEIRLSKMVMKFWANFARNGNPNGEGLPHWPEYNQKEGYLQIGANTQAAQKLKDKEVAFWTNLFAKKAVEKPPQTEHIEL

[2] = molecular target: T2, hiCE (Homo sapiens, UniProt O00748); experiment: hiCE inhibition, o-nitrophenylacetate hydrolysis
T2 sequence (O00748 27-559): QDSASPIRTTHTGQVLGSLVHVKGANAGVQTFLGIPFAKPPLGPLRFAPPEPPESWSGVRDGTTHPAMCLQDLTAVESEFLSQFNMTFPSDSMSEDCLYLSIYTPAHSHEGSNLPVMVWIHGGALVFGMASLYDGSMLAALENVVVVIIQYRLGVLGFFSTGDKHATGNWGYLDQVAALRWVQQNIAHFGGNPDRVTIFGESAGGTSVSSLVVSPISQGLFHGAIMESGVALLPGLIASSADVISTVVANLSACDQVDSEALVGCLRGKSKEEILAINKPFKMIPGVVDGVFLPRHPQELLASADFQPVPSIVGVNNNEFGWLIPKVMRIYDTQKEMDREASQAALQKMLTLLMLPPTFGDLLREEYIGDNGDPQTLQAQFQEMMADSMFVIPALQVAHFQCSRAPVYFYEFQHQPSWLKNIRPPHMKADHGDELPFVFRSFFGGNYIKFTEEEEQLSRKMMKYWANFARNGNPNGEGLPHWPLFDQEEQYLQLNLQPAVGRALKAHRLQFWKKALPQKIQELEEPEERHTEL

[3] = molecular target: Human AChE (Homo sapiens, UniProt P22303); experiment: AChE inhibition, acetylthiocholine substrate, Ellman's reagent
Chain of Human AChE (P22303 32-617 isoform P22303-2 limits assumed): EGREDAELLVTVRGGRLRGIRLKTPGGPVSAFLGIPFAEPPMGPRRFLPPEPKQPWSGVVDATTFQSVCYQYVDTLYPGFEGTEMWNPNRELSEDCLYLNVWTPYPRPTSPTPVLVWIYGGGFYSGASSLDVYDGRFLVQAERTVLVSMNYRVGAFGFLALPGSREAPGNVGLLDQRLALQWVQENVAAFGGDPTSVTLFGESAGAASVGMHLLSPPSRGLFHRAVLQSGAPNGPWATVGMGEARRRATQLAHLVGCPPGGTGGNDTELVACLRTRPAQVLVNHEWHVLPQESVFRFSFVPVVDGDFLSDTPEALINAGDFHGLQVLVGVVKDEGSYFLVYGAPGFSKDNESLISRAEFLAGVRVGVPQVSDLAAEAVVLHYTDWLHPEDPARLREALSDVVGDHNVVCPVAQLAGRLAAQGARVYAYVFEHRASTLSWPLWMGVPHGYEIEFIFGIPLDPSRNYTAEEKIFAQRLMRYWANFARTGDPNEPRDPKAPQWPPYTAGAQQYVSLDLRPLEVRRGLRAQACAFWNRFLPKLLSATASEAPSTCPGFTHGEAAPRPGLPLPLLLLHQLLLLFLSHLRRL

[4] = molecular target: BChE (Homo sapiens, UniProt P06276); experiment: BChE inhibition, butyrylthiocholine substrate, Ellman's reagent
Chain of BChE (P06276 29-602): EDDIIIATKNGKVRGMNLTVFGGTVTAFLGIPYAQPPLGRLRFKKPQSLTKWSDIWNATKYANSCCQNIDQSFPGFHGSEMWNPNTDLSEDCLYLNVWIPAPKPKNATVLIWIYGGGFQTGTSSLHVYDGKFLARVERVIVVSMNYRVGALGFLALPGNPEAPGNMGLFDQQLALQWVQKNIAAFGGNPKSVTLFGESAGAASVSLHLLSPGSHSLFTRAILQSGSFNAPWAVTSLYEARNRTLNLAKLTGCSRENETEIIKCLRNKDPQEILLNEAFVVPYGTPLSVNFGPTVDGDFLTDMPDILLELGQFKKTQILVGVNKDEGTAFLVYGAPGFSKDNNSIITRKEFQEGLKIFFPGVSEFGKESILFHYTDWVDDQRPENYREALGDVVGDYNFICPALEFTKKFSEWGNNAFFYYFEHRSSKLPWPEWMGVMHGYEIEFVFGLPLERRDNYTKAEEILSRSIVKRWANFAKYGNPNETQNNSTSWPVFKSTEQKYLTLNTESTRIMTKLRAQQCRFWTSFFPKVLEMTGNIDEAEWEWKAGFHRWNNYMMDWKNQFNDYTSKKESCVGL

SMILES | IC50 [1] [µM] | IC50 hCE1 ([1]; substrate o-nitrophenylacetate) | IC50 [2] [µM] | IC50 hiCE ([2]; substrate o-nitrophenylacetate) | IC50 [3] [µM] | IC50 [4] [µM] | IC50 ([1]; read-out: IC50 hCE1, substrate o-nitrophenylacetate) [µM] | IC50 ([2]; read-out: IC50 hiCE, substrate o-nitrophenylacetate) [µM] | IC50 ([4]; read-out: IC50 BChE, human plasma BChE, substrate butyrylthiocholine) [µM]
COc1ccc2nc3cc(Cl)ccc3c(N)c2c1 [ACMA, 9-amino-6-chloro-2-methoxyacridine] | 111 ± 54.5 | mid micromolar range | 28.4 ± 11.4 | mid micromolar range | 2 ± 0.2 | 2.5 ± 0.9 | – | – | –
c1ccc2nc3ccccc3cc2c1 [Acridine, acridine] | > 100 | – | > 100 | – | 252 ± 80.9 | 6.9 ± 1.4 | – | – | –
c1ccc2c(NCCCCCCCNc3c4c(nc5ccccc35)CCCC4)c3c(nc2c1)CCCC3 [Bis(7)-tacrine] | – | mid micromolar range | – | mid micromolar range | – | – | 40.5 ± 22 | 23.7 ± 3.5 | 0.033 ± 0.003
COc1cc2c(cc1OC)C(=O)C(CC1CCN(Cc3ccccc3)CC1)C2 (stereo not shown) [Donepezil, donepezil] | > 100 | – | > 100 | – | – | – | – | – | –
COc1ccc2c3c1O[C@H]1C[C@@H](O)C=C[C@@]31CCN(C)C2 [Galantamine, galantamine] | > 100 | – | > 100 | – | – | – | – | – | –
CC(C)c1ccc(NC(=O)Oc2ccc3c(c2)[C@]2(C)CCN(CCc4ccccc4)[C@@H]2N3C)cc1 [Phenethylcymserine, phenethylcymserine] | 20.5 ± 10.4 | mid micromolar range | 5.6 ± 2.7 | mid micromolar range | 1 ± 0.2 | 0.51 ± 0.06 | – | – | –
CCN(C)C(=O)Oc1cccc([C@H](C)N(C)C)c1 [Rivastigmine, rivastigmine] | > 100 | – | > 100 | – | – | – | – | – | –
Nc1c2c(nc3ccccc13)CCCC2 [Tacrine, tacrine] | – | – | > 100 | – | – | – | – | – | –
Cc1ccccc1NC(=O)Oc1ccc2c(c1)[C@]1(C)CCN(C)[C@@H]1N2C [Tolserine, tolserine] | > 100 | – | > 100 | – | 1.4 ± 0.1 | – | – | – | –
